Data reported in ChEMBL document CHEMBL1201862, “PubChem BioAssay data set” (2004).
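These data come from cells grown in 96-well plates and exposed to compound for 48 hours at five concentrations. Here, GI50 denotes the concentration required for 50% inhibition of growth.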 The source made the active and inactive calls. Cut-off read from the data, not from the text of the source: active = GI50 up to about 1.1 µM and inactive = higher.

How the values were obtained:
Test in all cases: DTP human tumour cell line panel, 48 h
786-0 = test system: 786-0
A498 = test system: A498
A549 = test system: A549
ACHN = test system: ACHN
BT-549 = test system: BT-549
CAKI-1 = test system: CAKI-1
CCRF-CEM = test system: CCRF-CEM
COLO 205 = test system: COLO 205
DU-145 = test system: DU-145
EKVX = test system: EKVX
HCC 2998 = test system: HCC 2998
HCT-116 = test system: HCT-116
HCT-15 = test system: HCT-15
HL-60 = test system: HL-60
HOP-62 = test system: HOP-62
HOP-92 = test system: HOP-92
HT-29 = test system: HT-29
Hs-578T = test system: Hs-578T
IGROV-1 = test system: IGROV-1
K562 = test system: K562
KM12 = test system: KM12
M14 = test system: M14
MCF7 = test system: MCF7
MDA-MB-231 = test system: MDA-MB-231
MDA-MB-435 = test system: MDA-MB-435
MDA-N = test system: MDA-N
MOLT-4 = test system: MOLT-4
Malme-3M = test system: Malme-3M
NCI-H226 = test system: NCI-H226
NCI-H23 = test system: NCI-H23
NCI-H460 = test system: NCI-H460
NCI-H522 = test system: NCI-H522
NCI/ADR-RES = test system: NCI/ADR-RES
OVCAR-3 = test system: OVCAR-3
OVCAR-4 = test system: OVCAR-4
OVCAR-5 = test system: OVCAR-5
OVCAR-8 = test system: OVCAR-8
PC-3 = test system: PC-3
RPMI-8226 = test system: RPMI-8226
RXF 393 = test system: RXF 393
SF-268 = test system: SF-268
SF-295 = test system: SF-295
SF-539 = test system: SF-539
SK-MEL-2 = test system: SK-MEL-2
SK-MEL-5 = test system: SK-MEL-5
SK-OV-3 = test system: SK-OV-3
SN12C = test system: SN12C
SNB-19 = test system: SNB-19
SNB-75 = test system: SNB-75
SR = test system: SR
SW-620 = test system: SW-620
TK-10 = test system: TK-10
U-251 = test system: U-251
UACC-257 = test system: UACC-257
UACC-62 = test system: UACC-62
UO-31 = test system: UO-31
LOX IMVI = test system: LOX IMVI
SK-MEL-28 = test system: SK-MEL-28

Measured: GI50

CC12CC(=O)Nc3ccccc3N1C(c1ccccc1)=NO2 (stereo not given)
> 100 µM: HCT-15
inactive: 786-0 > 100 µM | A498 > 100 µM | A549 > 100 µM | ACHN > 100 µM | BT-549 > 100 µM | CAKI-1 > 100 µM | CCRF-CEM > 100 µM | COLO 205 > 100 µM | DU-145 > 100 µM | EKVX > 100 µM | HCC 2998 > 100 µM | HCT-116 > 100 µM | HL-60 > 100 µM | HOP-62 > 100 µM | HOP-92 > 100 µM | HT-29 > 100 µM | Hs-578T > 100 µM | IGROV-1 > 100 µM | K562 > 100 µM | KM12 > 100 µM | M14 > 100 µM | MCF7 > 100 µM | MDA-MB-231 > 100 µM | MDA-MB-435 > 100 µM | MDA-N > 100 µM | MOLT-4 > 100 µM | Malme-3M > 100 µM | NCI-H226 > 100 µM | NCI-H23 > 100 µM | NCI-H460 > 100 µM | NCI-H522 > 100 µM | NCI/ADR-RES > 100 µM | OVCAR-3 > 100 µM | OVCAR-4 > 100 µM | OVCAR-5 > 100 µM | OVCAR-8 > 100 µM | PC-3 > 100 µM | RPMI-8226 > 100 µM | RXF 393 > 100 µM | SF-268 > 100 µM | SF-295 > 100 µM | SF-539 > 100 µM | SK-MEL-2 > 100 µM | SK-MEL-5 > 100 µM | SK-OV-3 > 100 µM | SN12C > 100 µM | SNB-19 > 100 µM | SNB-75 > 100 µM | SR > 100 µM | SW-620 > 100 µM | TK-10 > 100 µM | U-251 > 100 µM | UACC-257 > 100 µM | UACC-62 > 100 µM | UO-31 > 100 µM

CCOC(=O)C1(C(=O)OCC)CN(CC)CN(c2ccccc2)C1
16 µM: HCT-15
inactive: 786-0 19.8 µM | A498 > 100 µM | A549 22.2 µM | ACHN 19.9 µM | BT-549 20.8 µM | CAKI-1 17.8 µM | CCRF-CEM 16.2 µM | COLO 205 18.2 µM | DU-145 30 µM | EKVX 17.6 µM | HCC 2998 15.4 µM | HCT-116 48.3 µM | HL-60 22.2 µM | HOP-62 21.1 µM | HOP-92 16.5 µM | HT-29 17.8 µM | Hs-578T > 100 µM | IGROV-1 19.6 µM | K562 39.4 µM | KM12 > 100 µM | LOX IMVI 91.2 µM | M14 19.1 µM | MCF7 18.5 µM | MDA-MB-435 19.1 µM | MDA-N 35.6 µM | MOLT-4 18.3 µM | Malme-3M 38.3 µM | NCI-H23 18.4 µM | NCI-H460 35.4 µM | NCI-H522 29.3 µM | NCI/ADR-RES 45.6 µM | OVCAR-3 18.5 µM | OVCAR-4 25.1 µM | OVCAR-5 19.2 µM | OVCAR-8 21.5 µM | RPMI-8226 18.2 µM | RXF 393 17.1 µM | SF-268 69.2 µM | SF-295 > 100 µM | SF-539 21.5 µM | SK-MEL-28 18.7 µM | SK-MEL-5 34.8 µM | SK-OV-3 > 100 µM | SN12C 37.1 µM | SNB-19 > 100 µM | SNB-75 19.4 µM | SR 21 µM | SW-620 30.6 µM | TK-10 19 µM | UACC-257 17.2 µM | UACC-62 26.5 µM | UO-31 28 µM

Cc1cc(C)c(S(=O)(=O)N2CCCN(S(=O)(=O)c3c(C)cc(C)cc3C)OCCCON(S(=O)(=O)c3c(C)cc(C)cc3C)CCCN(S(=O)(=O)c3c(C)cc(C)cc3C)OCCCO2)c(C)c1
inactive: 786-0 > 100 µM | A549 > 100 µM | ACHN > 100 µM | BT-549 > 100 µM | CAKI-1 > 100 µM | CCRF-CEM > 100 µM | COLO 205 > 100 µM | DU-145 > 100 µM | EKVX > 100 µM | HCC 2998 > 100 µM | HCT-116 > 100 µM | HL-60 46.6 µM | HOP-62 > 100 µM | HOP-92 36.1 µM | HT-29 > 100 µM | Hs-578T 51.8 µM | IGROV-1 > 100 µM | K562 > 100 µM | KM12 > 100 µM | LOX IMVI > 100 µM | M14 > 100 µM | MCF7 > 100 µM | MDA-MB-231 > 100 µM | MDA-MB-435 > 100 µM | MDA-N > 100 µM | MOLT-4 > 100 µM | Malme-3M > 100 µM | NCI-H226 > 100 µM | NCI-H23 > 100 µM | NCI-H460 > 100 µM | NCI-H522 > 100 µM | NCI/ADR-RES > 100 µM | OVCAR-3 > 100 µM | OVCAR-4 > 100 µM | OVCAR-5 > 100 µM | OVCAR-8 > 100 µM | PC-3 > 100 µM | RPMI-8226 67.3 µM | RXF 393 61.1 µM | SF-268 > 100 µM | SF-295 > 100 µM | SF-539 > 100 µM | SK-MEL-28 > 100 µM | SK-MEL-2 > 100 µM | SK-MEL-5 > 100 µM | SK-OV-3 > 100 µM | SNB-19 > 100 µM | SNB-75 70.3 µM | SR > 100 µM | SW-620 > 100 µM | TK-10 > 100 µM | U-251 > 100 µM | UACC-257 > 100 µM | UACC-62 > 100 µM | UO-31 > 100 µM
> 100 µM: HCT-15
